Key:
[1] = Aqueous phase-solubility study of cannabinoids with RM-β-CD; type: physicochemical; settings: for complexation constant for 1:1 inclusion complex, K1:1 / complexation constant for 1:2 inclusion complex, K1:2: with RM-β-CD, calculated from Ap-type phase-solubility diagram
Text: (§1) AU the phase-solubility diagrams (cannabinoid concentration as a function of CD concentration) are Ap-type (Higuchi and Connors 1965) and calculated complexation constants for 1:1 and 1:2 inclusion complexes has been shown in Table 1.

[2] = Aqueous phase-solubility study of cannabinoids with HP-β-CD; type: physicochemical; settings: calculated from Ap-type phase-solubility diagram
Text: as §1

[3] = Dissolution studies of THC formulations in 2% RM-β-CD dissolution media (pH 6.6); type: physicochemical; settings: gelatine capsule, 1.0 mg pure THC and 99 mg lactose, without RM-β-CD, 2% RM-β-CD media
[4] = Aqueous solubility of THC in HP-β-CD solution (Jarho et al.); type: physicochemical; settings: calculated from Jarho et al.
Method: Compared to earlier findings, methylated β-CD improves the aqueous solubility of cannabinoids more efficiently, imparting promising dissolution properties for cannabinoids. […] However, the complexation of cannabinoids with methylated β-CD is more efficient compared to HP-β-CD.
As discussed above, the bioavailability of THC is 6-20% after oral administration. THC is commercially available as a capsule containing 5-10 mg of THC (Marinol). […] Thus, it can be calculated that 2 g of HP-β-CD is needed to establish a dosage form containing 5 mg of complexed THC. This is an amount that is too much for tablet formulations. According to the invention it has now been shown that the same amount of THC can be complexed with 200 mg of RM-β-CD.

[5] = 40% solution of HP-β-CD; cited from earlier work
[6] = oral administration, depending on the drug vehicle; cited from earlier work
[7] = Dissolution studies of CBD formulations in 2% RM-β-CD dissolution media (pH 6.6); type: physicochemical; settings: gelatine capsule, 1.0 mg pure CBD and 99 mg lactose, without RM-β-CD, 2% RM-β-CD media

| Structure (SMILES) | amount of RM-β-CD to prepare the same formulation (1 mg of THC) ([1]; 1 mg of THC) | amount of RM-β-CD that complexes 5 mg of THC ([1]; same amount of THC (5 mg)) | complexation constant for 1:1 inclusion complex, K1:1 [1] | complexation constant for 1:2 inclusion complex, K1:2 [1] | complexation constant for 1:1 inclusion complex, K1:1 [2] | complexation constant for 1:2 inclusion complex, K1:2 [2] | time until THC is fully dissolved [3] | amount of HP-β-CD needed for a dosage form containing 5 mg of complexed THC [4] | amount of HP-β-CD needed to complex 1 mg of THC [4] | concentration of THC solution obtained [5] | bioavailability [6] | time until CBD is fully dissolved [7] |
| --- | --- | --- | --- | --- | --- | --- | --- | --- | --- | --- | --- | --- |
| CCCCCc1cc(O)c2c(c1)OC(C)(C)[C@@H]1CCC(C)=C[C@@H]21 [THC, Δ^9-tetrahydrocannabinol] | 25.7 mg | 200 mg | 19 563 M^−1 | 38 M⁻¹ | 4 222 M^−1 | 58 M⁻¹ | 1 h | 2 g | 400 mg | 1000 µg/mL | 6-20% | – |
| C=C(C)[C@@H]1CCC(C)=C[C@H]1c1c(O)cc(CCCCC)cc1O [CBD, cannabidiol] | – | – | 484 145 M^−1 | 8 M⁻¹ | 13 844 M^−1 | 62 M⁻¹ | – | – | – | – | – | 3 h |
